Measurements: US12404283B2, “c-MYC mRNA translation modulators and uses thereof in the treatment of cancer” (Anima Biotech Inc., priority 2022, dated 2025)

These compounds were tested on c-Myc (assay: c-Myc immunofluorescence assay). Conditions: A549 cells, 24 hours treatment, anti-c-Myc immunofluorescence.
Assay type: cell-based, human
Description: A549 human non-small cell lung carcinoma cells were treated for 24 hours with increasing compound concentration, cells were fixed and stained with a nuclei stain (DAPI) and anti-c-Myc fluorescent antibody. The c-Myc signal was quantified by image analysis, and data was exported and analyzed using TIBCO Spotfire® (TIBCO Corporation). Dose response curves were generated and fitted with logaristic regression to calculate potency (EC50 values). Potency values are presented in Table 2 for all compounds and are shown for selected compounds (FIG. 4).
A549 cells were grown in 384-wells plates (Perkin Elmer, Cat. 6057300) for 48 hours, treated with compounds and then fixed for 20 min in 4% paraformaldehyde. After that permeabilization was done using 0.1% Triton X-100 in PBS for 20 min. Primary anti-c-Myc antibody (Abcam, ab32072) staining was performed for 90 min at room temperature. Cells then were washed twice with PBS and incubated with secondary antibody (Abcam, ab150075) for 90 min at room temperature. Nuclei were stained with DAPI for 10 min and washed twice with PBS.
Cell images were taken with Operetta (Perkin Elmer, USA), a wide-field fluorescence microscope at 20× magnification. After acquisition, the images were transferred to Columbus software (Perkin-Elmer) for image analysis. In Columbus, cells were identified by their nucleus, using the “Find Nuceli” module and cytoplasm was detected based on the secondary antibody channel. Subsequently, the fluorescent signal was enumerated in the identified cell region. Then data was exported to a data analysis and visualization software, Tibco Spotfire, USA.

Compound | Myc Efficacy (−LogEC50)
O=C1CCCC(c2ccc(-c3cn4c(n3)sc3cc(C(=O)NCCCN5CCC(F)CC5)ccc34)c(F)c2)N1 (stereo not drawn) [compound 486] | ++ (++ ≥5 and <6)
CNC(=O)c1ccc(-c2cn3c(n2)sc2cc(C(=O)NC4(C(F)(F)F)COC4)ccc23)cc1 [compound 206, 2-(4-(methylcarbamoyl)phenyl)-N-(3-(trifluoromethyl)oxetan-3-yl)benzo[d]imidazo[2,1-b]thiazole-7-carboxamide] | − (− ≤3)
O=C(NCCCN1CCC(F)CC1)c1ccc2c(c1)sc1nc(-c3ccc(-c4nc[nH]n4)cc3F)cn12 [Compound 483, 2-(2-fluoro-4-(1H-1,2,4-triazol-3-yl)phenyl)-N-(3-(4-fluoropiperidin-1-yl)propyl)benzo[d]imidazo[2,1-b]thiazole-7-carboxamide] | +++ (+++ ≥6)
CNC(=O)c1ccc(-c2cn3c(n2)sc2cc(C(=O)NCC(C)OC)ccc23)cc1 (stereo not drawn) [compound 203, N-(2-methoxypropyl)-2-(4-(methylcarbamoyl)phenyl) benzo[d]imidazo[2,1-b]thiazole-7-carboxamide] | + (+ >3 and <5)
CCNCCCNC(=O)c1ccc2c(c1)sc1nc(-c3cccc(C)c3)cn12 [compound 155] | ++ (++ ≥5 and <6)
CNC(=O)c1ccc(-c2cn3c(n2)sc2cc(C(=O)N[C@H]4CN5CCC4CC5)ccc23)cc1 [compound 231, (R)-2-(4-(methylcarbamoyl)phenyl)-N-(quinuelidin-3-yl)benzo[d]imidazo[2,1-b]thiazole-7-carboxamide] | − (− ≤3)
CNC(=O)c1ccc(-c2cn3c(n2)sc2cc(C(=O)NCCCN4CCCC4CO)ccc23)cc1 (stereo not drawn) [compound 271, N-(3-(2-(hydroxymethyl)pyrrolidin-1-yl)propyl)-2-(4-(methylcarbamoyl)phenyl) benzo[d]imidazo[2,1-b]thiazole-7-carboxamide] | + (+ >3 and <5)
CN1CCC(NC(=O)c2ccc3c(c2)sc2nc(-c4ccc(N5CCNCC5)cc4F)cn23)CC1 [Compound 547, 2-(2-fluoro-4-(piperazin-1-yl)phenyl)-N-(1-methylpiperidin-4-yl)benzo[d]imidazo[2,1-b]thiazole-7-carboxamide] | +++ (+++ ≥6)
CCN(CC)CCCNC(=O)c1ccc2c(c1)sc1nc(-c3ccc(C(=O)NCCNC)cc3)cn12 [compound 295, N-(3-(diethylamino)propyl)-2-(4-((2-(methylamino)ethyl)carbamoyl)phenyl)benzo[d] imidazo[2,1-b]thiazole-7-carboxamide] | ++ (++ ≥5 and <6)
CCN(CC)CCCNC(=O)c1ccc2c(c1)sc1nc(-c3cc(F)c(CNC4CC4)cc3F)cn12 [compound 334, 2-(4-((cyclopropylamino)methyl)-2,5-difluorophenyl)-N-(3-(diethylamino)propyl)benzo [d]imidazo[2,1-b]thiazole-7-carboxamide] | ++ (++ ≥5 and <6)
CNC(=O)c1ccc(-c2cn3c(n2)sc2cc(NC(=O)CCCN4CCCCC4)ccc23)cc1 [compound 312, N-methyl-4-(7-(4-(piperidin-1-yl)butanamido)benzo[d]imidazo[2,1-b]thiazol-2-yl)benzamide] | ++ (++ ≥5 and <6)
CNC(=O)c1ccc(-c2cn3c(n2)sc2cc(C(=O)N[C@H]4c5ccccc5C[C@H]4O)ccc23)cc1 [compound 263, N-((1S,2R)-2-hydroxy-2,3-dihydro-1H-inden-1-yl)-2-(4-(methylcarbamoyl)phenyl) benzo[d]imidazo[2,1-b]thiazole-7-carboxamide] | − (− ≤3)
CCN(CC)CCCNC(=O)c1ccc2c(c1)sc1nc(-c3cccc(OC)c3)cn12 [compound 152, N-(3-(diethylamino)propyl)-2-(3-methoxyphenyl)benzo[d] imidazo[2,1-b]thiazole-7-carboxamide] | ++ (++ ≥5 and <6)
CNC(=O)c1ccc(-c2nc3sc4cc(C(=O)NCCCN5CCC(F)CC5)ccc4n3n2)c(F)c1 [compound 389, 2-(2-fluoro-4-(methylcarbamoyl)phenyl)-N-(3-(4-fluoropiperidin-1-yl)propyl)benzo[4,5]thiazolo [3,2-b][1,2,4]triazole-6-carboxamide] | ++ (++ ≥5 and <6)
CCN(CC)CCCNC(=O)c1ccc2c(c1)sc1nc(-c3ccc(C(=O)NC)cc3F)cn12 [compound 166, N-(3-(diethylamino)propyl)-2-(2-fluoro-4-(methylcarbamoyl)phenyl) benzo[d]imidazo[2,1-b]thiazole-7-carboxamide] | +++ (+++ ≥6)
CNC(=O)c1ccc(-c2cn3c(n2)sc2cc(C(=O)NC4CC(C)C4)ccc23)cc1 (stereo not drawn) [compound 280, 2-(4-(methylcarbamoyl)phenyl)-N-(3-methylcyclobutyl)benzo[d] imidazo[2,1-b]thiazole-7-carboxamide] | ++ (++ ≥5 and <6)
O=C(NCCCN1CCCCC1)c1ccc2c(c1)sc1nc(-c3ccc(CNC4CC4)cc3F)nn12 [compound 396, 2-(4-((cyclopropylamino)methyl)-2-fluorophenyl)-N-(3-(piperidin-1-yl)propyl)benzo[4,5]thiazolo [3,2-b][1,2,4]triazole-6-carboxamide] | ++ (++ ≥5 and <6)
CNC(=O)c1ccc(-c2cn3c(n2)sc2cc(C(=O)N4CCN(CC(N)=O)CC4)ccc23)cc1 [compound 250, 4-(7-(4-(2-amino-2-oxoethyl)piperazine-1-carbonyl)benzo[d]imidazo [2,1-b]thiazol-2-yl)-N-methylbenzamide] | + (+ >3 and <5)
O=C(c1ccc2c(c1)sc1nc(-c3ccc(F)cc3)cn12)N1CCCCCC1 [compound 104, azepan-1-yl(2-(4-fluorophenyl)benzo[d]imidazo[2,1-b]thiazol-7-yl)methanone] | + (+ >3 and <5)
CCN(CC)CCCNC(=O)c1ccc2c(c1)sc1nc(-c3cc(C)ccc3F)cn12 [compound 144, N-(3-(diethylamino)propyl)-2-(2-fluoro-5-methylphenyl)benzo[d] imidazo[2,1-b]thiazole-7-carboxamide] | + (+ >3 and <5)
CCN(CC)CCCNC(=O)c1ccc2c(c1)sc1nc(-c3ccc(CO)cc3)cn12 [compound 277, N-(3-(diethylamino)propyl)-2-(4-(hydroxymethyl)phenyl) benzo[d]imidazo[2,1-b] thiazole-7-carboxamide] | ++ (++ ≥5 and <6)
CNC(=O)c1ccc(-c2cn3c(n2)sc2cc(C(=O)NCCN4CCN(C)CC4)ccc23)cc1 [compound 184, 2-(4-(methylcarbamoyl)phenyl)-N-(2-(4-methylpiperazin-1-yl)ethyl)benzo[d]imidazo [2,1-b]thiazole-7-carboxamide] | + (+ >3 and <5)
CNC(=O)c1ccc(-c2cn3c(n2)sc2cc(C(=O)N[C@H]4CCN(C)C4)ccc23)cc1 [compound 225, (S)-2-(4-(methylcarbamoyl)phenyl)-N-(1-methylpyrrolidin-3-yl)benzo[d]imidazo[2,1-b]thiazole-7-carboxamide] | + (+ >3 and <5)
Cc1cccc(-c2cn3c(n2)sc2cc(C(=O)N[C@H]4C[C@H](N5CCCCC5)C4)ccc23)c1 [compound 151, N-((1r,3r)-3-(piperidin-1-yl)cyclobutyl)-2-(m-tolyl)benzo[d]imidazo[2,1-b]thiazole-7-carboxamide] | + (+ >3 and <5)
O=C(NCCCN1CCCCC1)c1ccc2c(c1)sc1nc(-c3ccc([C@@H]4CCCN4)cc3F)cn12 [compound 418, (S)-2-(2-fluoro-4-(pyrrolidin-2-yl)phenyl)-N-(3-(piperidin-1-yl)propyl)benzo[d]imidazo [2,1-b]thiazole-7-carboxamide] | +++ (+++ ≥6)
CNC(=O)c1ccc(-c2cn3c(n2)sc2cc(C(=O)NCC4(C)CC4)ccc23)cc1 [compound 261, 2-(4-(methylcarbamoyl)phenyl) N-((1-methylcyclopropyl)methyl) benzo[d]imidazo[2,1-b]thiazole-7-carboxamide] | − (− ≤3)
CN1C2CCC1CC(NC(=O)c1ccc3c(c1)sc1nc(-c4ccc([C@@H]5CCCN5)cc4F)cn13)C2 (stereo partly drawn) [compound 531, 2-(2-fluoro-4-(pyrrolidin-2-yl)phenyl)-N-(8-methyl-8-azabicyclo[3.2.1]octan-3-yl)benzo[d]imidazo[2,1-b]thiazole-7-carboxamide] | ++ (++ ≥5 and <6)
CNC(=O)c1ccc(-c2cn3c(n2)sc2cc(C(=O)N[C@H]4CCNC4)ccc23)cc1 [compound 222, (S)-2-(4-(methylcarbamoyl)phenyl)-N-(pyrrolidin-3-yl)benzo[d]imidazo[2,1-b]thiazole-7-carboxamide] | + (+ >3 and <5)
CN1CCC(NC(=O)c2ccc3c(c2)sc2nc(-c4ccc([C@@H]5C[C@@H](O)CN5)cc4F)cn23)CC1 [Compound 522R, 2-(2-fluoro-4-((2S,4R)-4-hydroxypyrrolidin-2-yl)phenyl)-N-(1-methylpiperidin-4-yl)benzo[d]imidazo[2,1-b]thiazole-7-carboxamide] | +++ (+++ ≥6)
Cc1cccc(-c2cn3c(n2)sc2cc(C(=O)NCCC(=O)N4CCCC4)ccc23)c1 [compound 159, N-(3-oxo-3-(pyrrolidin-1-yl)propyl)-2-(m-tolyl)benzo[d]imidazo[2,1-b]thiazole-7-carboxamide] | + (+ >3 and <5)
